Reference: PubChem BioAssay (NCI)
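Test compounds were applied to cells in 96-well plates for 48 hours at 5 doses. TGI marks complete inhibition of growth.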

Key:
Assay in all cases: NCI-60 cell line screen, 48 h
HT29 colon = system: HT29 colon
SN12C renal = system: SN12C renal
U251 CNS = system: U251 CNS
OVCAR-5 ovarian = system: OVCAR-5 ovarian
EKVX NSCLC = system: EKVX NSCLC
DMS 273 small cell lung = system: DMS 273 small cell lung
NCI-H23 lung = system: NCI-H23 lung
SNB-19 CNS = system: SNB-19 CNS
ACHN renal = system: ACHN renal
CAKI-1 renal = system: CAKI-1 renal
HCT-116 colon = system: HCT-116 colon
CCRF-CEM leukemia = system: CCRF-CEM leukemia
UO-31 renal = system: UO-31 renal
SW-620 colon = system: SW-620 colon
IGROV1 ovarian = system: IGROV1 ovarian
OVCAR-8 ovarian = system: OVCAR-8 ovarian
LOX IMVI melanoma = system: LOX IMVI melanoma
HL-60(TB) leukemia = system: HL-60(TB) leukemia
SK-MEL-28 melanoma = system: SK-MEL-28 melanoma
SF-268 CNS = system: SF-268 CNS
SF-539 CNS = system: SF-539 CNS
A498 renal = system: A498 renal
HCC-2998 colon = system: HCC-2998 colon
UACC-62 melanoma = system: UACC-62 melanoma
M14 melanoma = system: M14 melanoma
DLD-1 colon = system: DLD-1 colon
MOLT-4 leukemia = system: MOLT-4 leukemia
RXF 393 renal = system: RXF 393 renal
LXFL 529 NSCLC = system: LXFL 529 NSCLC
OVCAR-3 ovarian = system: OVCAR-3 ovarian
HOP-18 NSCLC = system: HOP-18 NSCLC
UACC-257 melanoma = system: UACC-257 melanoma
A549 NSCLC = system: A549 NSCLC
SK-OV-3 ovarian = system: SK-OV-3 ovarian
SNB-75 CNS = system: SNB-75 CNS
HCT-15 colon = system: HCT-15 colon
SK-MEL-5 melanoma = system: SK-MEL-5 melanoma
RXF-631 renal = system: RXF-631 renal
NCI-H460 lung = system: NCI-H460 lung
COLO 205 colon = system: COLO 205 colon
NCI-H226 lung = system: NCI-H226 lung
SK-MEL-2 melanoma = system: SK-MEL-2 melanoma
786-0 renal = system: 786-0 renal
M19-MEL melanoma = system: M19-MEL melanoma
SF-295 CNS = system: SF-295 CNS
NCI-H522 lung = system: NCI-H522 lung
K-562 leukemia = system: K-562 leukemia
XF 498 CNS = system: XF 498 CNS
MALME-3M melanoma = system: MALME-3M melanoma
HOP-92 NSCLC = system: HOP-92 NSCLC
KM20L2 colon = system: KM20L2 colon
SNB-78 CNS = system: SNB-78 CNS
KM12 colon = system: KM12 colon
RPMI-8226 leukemia = system: RPMI-8226 leukemia
HOP-62 NSCLC = system: HOP-62 NSCLC
OVCAR-4 ovarian = system: OVCAR-4 ovarian
DMS 114 small cell lung = system: DMS 114 small cell lung
TK-10 renal = system: TK-10 renal
SR leukemia = system: SR leukemia

For `CNC1=C(C)C(=O)C(C)=C(C(C)(C)CC(=O)n2cc(F)c(=O)[nH]c2=O)C1=O`, which TGI (HT29 colon) is on record?
Its TGI is > 100 µM.

What about the TGI (SN12C renal) of the same compound?
Its TGI is > 100 µM.

What about the TGI (U251 CNS) of the same compound?
Its TGI is > 100 µM.

What about the TGI (OVCAR-5 ovarian) of the same compound?
Its TGI is > 100 µM.

What about the TGI (EKVX NSCLC) of the same compound?
The TGI was > 100 µM.

What about the TGI (DMS 273 small cell lung) of the same compound?
Its TGI is > 100 µM.

What about the TGI (NCI-H23 lung) of the same compound?
Its TGI is > 100 µM.

And the TGI (SNB-19 CNS)?
Its TGI is > 100 µM.

And the TGI (ACHN renal)?
The TGI was > 100 µM.

And the TGI (CAKI-1 renal)?
Its TGI is > 100 µM.

And the TGI (HCT-116 colon)?
The TGI was > 100 µM.

What about the TGI (CCRF-CEM leukemia) of the same compound?
Its TGI is > 100 µM.

And the TGI (UO-31 renal)?
Its TGI is > 100 µM.

What about the TGI (SW-620 colon) of the same compound?
The TGI was > 100 µM.

What about the TGI (IGROV1 ovarian) of the same compound?
Its TGI is > 100 µM.

What about the TGI (OVCAR-8 ovarian) of the same compound?
Its TGI is > 100 µM.

What about the TGI (LOX IMVI melanoma) of the same compound?
The TGI was > 100 µM.

And the TGI (HL-60(TB) leukemia)?
Its TGI is > 100 µM.

What about the TGI (SK-MEL-28 melanoma) of the same compound?
Its TGI is > 100 µM.

What about the TGI (SF-268 CNS) of the same compound?
The TGI was > 100 µM.

And the TGI (SF-539 CNS)?
The TGI was > 100 µM.

And the TGI (A498 renal)?
The TGI was > 100 µM.

What about the TGI (HCC-2998 colon) of the same compound?
The TGI was > 100 µM.

And the TGI (UACC-62 melanoma)?
The TGI was > 100 µM.

What about the TGI (M14 melanoma) of the same compound?
Its TGI is > 100 µM.

What about the TGI (DLD-1 colon) of the same compound?
Its TGI is > 100 µM.

What about the TGI (MOLT-4 leukemia) of the same compound?
Its TGI is > 100 µM.

What about the TGI (RXF 393 renal) of the same compound?
Its TGI is > 100 µM.

What about the TGI (LXFL 529 NSCLC) of the same compound?
Its TGI is > 100 µM.

And the TGI (OVCAR-3 ovarian)?
Its TGI is > 100 µM.

What about the TGI (HOP-18 NSCLC) of the same compound?
Its TGI is > 100 µM.

And the TGI (UACC-257 melanoma)?
Its TGI is > 100 µM.

What about the TGI (A549 NSCLC) of the same compound?
The TGI was > 100 µM.

What about the TGI (SK-OV-3 ovarian) of the same compound?
The TGI was > 100 µM.

And the TGI (SNB-75 CNS)?
Its TGI is > 100 µM.

What about the TGI (HCT-15 colon) of the same compound?
Its TGI is > 100 µM.

And the TGI (SK-MEL-5 melanoma)?
The TGI was > 100 µM.

And the TGI (RXF-631 renal)?
Its TGI is > 100 µM.

What about the TGI (NCI-H460 lung) of the same compound?
Its TGI is > 100 µM.

And the TGI (COLO 205 colon)?
The TGI was > 100 µM.

What about the TGI (NCI-H226 lung) of the same compound?
The TGI was > 100 µM.

What about the TGI (SK-MEL-2 melanoma) of the same compound?
The TGI was > 100 µM.

And the TGI (786-0 renal)?
The TGI was > 100 µM.

What about the TGI (M19-MEL melanoma) of the same compound?
Its TGI is > 100 µM.

What about the TGI (SF-295 CNS) of the same compound?
The TGI was > 100 µM.

And the TGI (NCI-H522 lung)?
Its TGI is > 100 µM.

And the TGI (K-562 leukemia)?
The TGI was > 100 µM.

And the TGI (XF 498 CNS)?
The TGI was > 100 µM.

And the TGI (MALME-3M melanoma)?
The TGI was > 100 µM.

And the TGI (HOP-92 NSCLC)?
The TGI was > 100 µM.

And the TGI (KM20L2 colon)?
Its TGI is > 100 µM.

And the TGI (SNB-78 CNS)?
Its TGI is > 100 µM.

What about the TGI (KM12 colon) of the same compound?
Its TGI is > 100 µM.

What about the TGI (RPMI-8226 leukemia) of the same compound?
The TGI was > 100 µM.

What about the TGI (HOP-62 NSCLC) of the same compound?
Its TGI is > 53.8 µM.

What about the TGI (OVCAR-4 ovarian) of the same compound?
The TGI was > 100 µM.

And the TGI (DMS 114 small cell lung)?
The TGI was > 100 µM.

And the TGI (TK-10 renal)?
Its TGI is > 100 µM.

Which TGI (HT29 colon) does the source give for `Cn1c(=O)c(C(c2ccccc2)c2c(O)c3ccccc3n(C)c2=O)c(O)c2ccccc21` here?
The TGI was > 100 µM.

What about the TGI (SN12C renal) of the same compound?
Its TGI is > 100 µM.

What about the TGI (U251 CNS) of the same compound?
Its TGI is > 100 µM.

What about the TGI (OVCAR-5 ovarian) of the same compound?
Its TGI is 93.1 µM.

And the TGI (EKVX NSCLC)?
The TGI was > 100 µM.

What about the TGI (DMS 273 small cell lung) of the same compound?
Its TGI is > 100 µM.

And the TGI (NCI-H23 lung)?
Its TGI is > 100 µM.

And the TGI (SNB-19 CNS)?
The TGI was > 100 µM.

What about the TGI (ACHN renal) of the same compound?
Its TGI is > 100 µM.

And the TGI (CAKI-1 renal)?
The TGI was > 100 µM.

What about the TGI (HCT-116 colon) of the same compound?
The TGI was > 100 µM.

What about the TGI (UO-31 renal) of the same compound?
Its TGI is > 100 µM.

And the TGI (SW-620 colon)?
The TGI was > 100 µM.

And the TGI (IGROV1 ovarian)?
Its TGI is > 100 µM.

What about the TGI (OVCAR-8 ovarian) of the same compound?
The TGI was > 100 µM.

And the TGI (LOX IMVI melanoma)?
Its TGI is > 100 µM.

What about the TGI (HL-60(TB) leukemia) of the same compound?
Its TGI is > 100 µM.

What about the TGI (SK-MEL-28 melanoma) of the same compound?
The TGI was > 100 µM.

And the TGI (SF-268 CNS)?
The TGI was > 100 µM.

And the TGI (SF-539 CNS)?
Its TGI is > 100 µM.

What about the TGI (HCC-2998 colon) of the same compound?
The TGI was > 100 µM.

And the TGI (UACC-62 melanoma)?
Its TGI is > 100 µM.

What about the TGI (M14 melanoma) of the same compound?
Its TGI is > 100 µM.

What about the TGI (DLD-1 colon) of the same compound?
Its TGI is > 100 µM.

And the TGI (MOLT-4 leukemia)?
The TGI was > 100 µM.

And the TGI (RXF 393 renal)?
Its TGI is > 100 µM.

What about the TGI (LXFL 529 NSCLC) of the same compound?
The TGI was > 100 µM.

And the TGI (OVCAR-3 ovarian)?
Its TGI is > 100 µM.

What about the TGI (HOP-18 NSCLC) of the same compound?
The TGI was > 100 µM.

What about the TGI (SR leukemia) of the same compound?
The TGI was > 100 µM.

What about the TGI (UACC-257 melanoma) of the same compound?
Its TGI is > 100 µM.

And the TGI (A549 NSCLC)?
Its TGI is > 100 µM.

And the TGI (SK-OV-3 ovarian)?
Its TGI is > 100 µM.

What about the TGI (SNB-75 CNS) of the same compound?
The TGI was > 100 µM.

And the TGI (SK-MEL-5 melanoma)?
Its TGI is > 100 µM.

And the TGI (RXF-631 renal)?
Its TGI is > 100 µM.

And the TGI (NCI-H460 lung)?
Its TGI is > 100 µM.

And the TGI (COLO 205 colon)?
The TGI was > 100 µM.

And the TGI (NCI-H226 lung)?
The TGI was 65.9 µM.

And the TGI (SK-MEL-2 melanoma)?
Its TGI is > 100 µM.

What about the TGI (786-0 renal) of the same compound?
Its TGI is > 100 µM.

What about the TGI (M19-MEL melanoma) of the same compound?
Its TGI is > 100 µM.

What about the TGI (SF-295 CNS) of the same compound?
Its TGI is > 100 µM.

What about the TGI (NCI-H522 lung) of the same compound?
The TGI was > 100 µM.

What about the TGI (K-562 leukemia) of the same compound?
The TGI was > 100 µM.

And the TGI (XF 498 CNS)?
Its TGI is > 100 µM.

And the TGI (MALME-3M melanoma)?
Its TGI is > 100 µM.

And the TGI (HOP-92 NSCLC)?
The TGI was > 100 µM.

And the TGI (KM20L2 colon)?
The TGI was > 100 µM.

And the TGI (SNB-78 CNS)?
The TGI was > 100 µM.

What about the TGI (KM12 colon) of the same compound?
Its TGI is > 100 µM.

What about the TGI (RPMI-8226 leukemia) of the same compound?
The TGI was > 100 µM.

And the TGI (OVCAR-4 ovarian)?
Its TGI is > 100 µM.

And the TGI (DMS 114 small cell lung)?
Its TGI is > 100 µM.

And the TGI (TK-10 renal)?
The TGI was > 100 µM.
